The record followed here is ChEMBL document CHEMBL3600365, “Structural and computational study on inhibitory compounds for endonuclease activity of influenza virus polymerase” (Bioorg Med Chem, 2015).

Calls of active or inactive are those of the source. No cut-off for these calls is given here. Where only a bound is given, the exact number is not on record here.

For orientation: IC50 means the point on the concentration scale where inhibition reaches its midpoint. As usually defined, the EC50 is the concentration needed to bring the measured effect to its halfway point. As a reminder, the CC50 is the concentration at which the toxic effect on the cells reaches its halfway point. Low readings indicate harm at low concentration, high ones better tolerance by the cells.

Data set [1] relates to Influenza A virus. Put plainly: Antiviral activity against Influenza A virus (A/PR8/34(H1N1)) infected in MDCK cells assessed as inhibition of viral replication after 24 hrs. The conditions noted are these: A/Puerto Rico/8/1934(H1N1). The class given is functional, organism-based.
Data set [2] deals with unidentified influenza virus. In words: Antiviral activity against Influenza virus infected in MDCK cells assessed as viral RNA content incubated with cells for 30 mins prior to addition of 30 mins preincubated virus-compound mixture for 1 hr followed by 3 times compound washout and again cultured in compound containing virus growth medium for 24 hrs by RT-PCR analysis. The class given is functional, organism-based.

The target in data set [3] is Polymerase acidic protein (Influenza A virus (A/Puerto Rico/8/1934(H1N1)), UniProt P03433). In words: Inhibition of Influenza A/Perto Rico/8/34 (PR8) (H1N1) PA N-terminal domain (1 to 197) endonuclease activity expressed in Escherichia coli Rosetta (DE3) using (6-FAM)-AAT CGC AGG CAG CAC TC-(BHQ-1) as substrate measured every 50 secs for 30 mins by FRET assay.
For data set [4], the target named is Polymerase acidic protein (Influenza A virus (A/Puerto Rico/8/1934(H1N1))) (UniProt P03433). Put plainly: Inhibition of Influenza A/Perto Rico/8/34 (PR8) (H1N1) PAN (1 to 197) endonuclease activity expressed in Escherichia coli Rosetta (DE3) using M13mp18 as substrate at 100 uM after 60 mins by agarose gel elctrophoresis.
Data set [5] is described as follows: Cytotoxicity against MDCK cells after 24 hrs by CellTiter 96 AQueous one solution cell proliferation assay. It is filed as cell-based, Canis lupus familiaris. Conditions: dog.
Data set [6] relates to Influenza A virus. In words: Antiviral activity against Influenza A virus (A/Puerto Rico/8/1934(H1N1)) infected in MDCK cells after 24 hrs by immunofocus assay. It is filed as functional, organism-based.
The target in data set [7] is Polymerase acidic protein (Influenza A virus (A/Puerto Rico/8/1934(H1N1)), UniProt P03433). Put plainly: Inhibition of Influenza A/Puerto Rico/8/34 (H1N1) PA N-terminal domain endonuclease activity expressed in Escherichia coli BL21 (RIL) cells using (6-FAM)TGGCAATATCAGCTCCACA(MGBNFQ) as substrate by fluorescence assay.

Regarding `O=C(O)/C(O)=C/C(=O)C1(Cc2ccc(Cl)cc2)CCN(Cc2ccccc2)CC1`, the concentration for half-maximal inhibition (IC50) with Influenza A virus [1] turned out to be 350 nM.

As to `O=C(COc1ccc(F)cc1)c1ccc(O)c(O)c1O`, in data set [2], the concentration giving a half-maximal response (EC50) is 11.8 µM. In data set [3], the half-maximal inhibitory concentration (IC50) turned out to be 9.7 µM. Moreover, the inhibition result in data set [4] is “Active”. The compound further came in with a half-maximal cytotoxic concentration (CC50) at 24 h in data set [5] of more than 200 µM.

In the data set on Influenza A virus [6], `O=c1[nH]c(-c2ccc(F)cc2)c(-c2ccc(-c3nnn[nH]3)cc2)cc1O` yielded a 50% effective concentration (EC50) of 11 µM. The compound also registered a 50% inhibitory concentration (IC50) in data set [7] of 11 nM.

Take `Oc1ccc(/C=N/Nc2ccc(Cl)cc2)c(O)c1O`: the EC50 in data set [2] is 14.4 µM. For the same compound, 8.3 µM corresponded to half-maximal inhibition in data set [3] (IC50). In addition, the inhibition entry in data set [4] was “Active”. The same compound yielded a CC50 at 24 h in data set [5] of more than 200 µM.

`O=Cc1cc(Cc2ccccc2Cl)cc([N+](=O)[O-])c1O`: the concentration giving a half-maximal response (EC50) in data set [2] is 11.5 µM. For the same compound, in data set [3], it took 63 µM to reach half-maximal inhibition (IC50). In addition, the inhibition entry in data set [4] was “Active”. Besides, the 50% cytotoxic concentration (CC50) at 24 h in data set [5] is 74.1 µM.
